Data as given in the supplement of paper PMC10307832.

What was measured:
Test in all cases: relative viability (nuclei count vs DMSO), 5 days (fraction); higher = more cells survive
HCC-15 = tested on: HCC-15
In short: (§1)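 Values are medians from duplicate plates. Each reflects relative viability, defined as the nuclei count of treated wells over that of vehicle wells. Lung cancer cell lines in 1536-well plates were pin-tool dosed one day after seeding with one drug alone or with a fixed anchor-drug dose plus five library-drug doses (not always all listed) in √10 steps, then fixed, stained and imaged at 4× after 5 days.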

HARA = tested on: HARA
In short: as §1

NCI-H1755 = tested on: NCI-H1755
In short: as §1

COR-L23 = tested on: COR-L23
In short: as §1

NCI-H1793 = tested on: NCI-H1793
In short: as §1

NCI-H2009 = tested on: NCI-H2009
In short: as §1

NCI-H1993 = tested on: NCI-H1993
In short: as §1

NCI-H2347 = tested on: NCI-H2347
In short: as §1

NCI-H1734 = tested on: NCI-H1734
In short: as §1

NCI-H522 = tested on: NCI-H522
In short: as §1

NCI-H358 = tested on: NCI-H358
In short: as §1

NCI-H2228 = tested on: NCI-H2228
In short: as §1

HOP-62 = tested on: HOP-62
In short: as §1

NCI-H1792 = tested on: NCI-H1792
In short: as §1

NCI-H838 = tested on: NCI-H838
In short: as §1

SK-MES-1 = tested on: SK-MES-1
In short: as §1

UMC-11 = tested on: UMC-11
In short: as §1

NCI-H1395 = tested on: NCI-H1395
In short: as §1

NCI-H1355 = tested on: NCI-H1355
In short: as §1

NCI-H2170 = tested on: NCI-H2170
In short: as §1

NCI-H647 = tested on: NCI-H647
In short: as §1

COR-L 105 = tested on: COR-L 105
In short: as §1

Structure (SMILES): COc1nc(C)cnc1NS(=O)(=O)c1cccnc1-c1ccc(-c2nnco2)cc1 [Zibotentan] + CCNC(=O)c1noc(-c2cc(C(C)C)c(O)cc2O)c1-c1ccc(CN2CCOCC2)cc1 [Luminespib] (partner 0.01 µM)
- relative viability (HCC-15; first compound 0.08 µM): 0.244
- relative viability (HCC-15; first compound 0.253 µM): 0.114
- relative viability (HCC-15; first compound 0.8 µM): 0.4
- relative viability (HCC-15; first compound 2.53 µM): 0.365
- relative viability (HARA; first compound 0.08 µM): 0.731
- relative viability (HARA; first compound 0.253 µM): 0.705
- relative viability (HARA; first compound 0.8 µM): 0.636
- relative viability (HARA; first compound 2.53 µM): 0.836
- relative viability (NCI-H1755; first compound 0.08 µM): 0.338
- relative viability (NCI-H1755; first compound 0.253 µM): 0.558
- relative viability (NCI-H1755; first compound 0.8 µM): 0.489
- relative viability (NCI-H1755; first compound 2.53 µM): 0.252
- relative viability (COR-L23; first compound 0.08 µM): 0.879
- relative viability (COR-L23; first compound 0.253 µM): 0.656
- relative viability (COR-L23; first compound 0.8 µM): 0.719
- relative viability (COR-L23; first compound 2.53 µM): 0.667
- relative viability (NCI-H1793; first compound 0.08 µM): 0.172
- relative viability (NCI-H1793; first compound 0.253 µM): 0.169
- relative viability (NCI-H1793; first compound 0.8 µM): 0.225
- relative viability (NCI-H1793; first compound 2.53 µM): 0.169
- relative viability (NCI-H2009; first compound 0.08 µM): 0.959
- relative viability (NCI-H2009; first compound 0.253 µM): 1.03
- relative viability (NCI-H2009; first compound 0.8 µM): 1.08
- relative viability (NCI-H2009; first compound 2.53 µM): 1
- relative viability (NCI-H1993; first compound 0.08 µM): 0.667
- relative viability (NCI-H1993; first compound 0.253 µM): 0.978
- relative viability (NCI-H1993; first compound 0.8 µM): 0.839
- relative viability (NCI-H1993; first compound 2.53 µM): 0.949
- relative viability (NCI-H2347; first compound 0.253 µM): 0.382
- relative viability (NCI-H2347; first compound 0.8 µM): 0.426
- relative viability (NCI-H2347; first compound 2.53 µM): 0.452
- relative viability (NCI-H1734; first compound 0.08 µM): 0.19
- relative viability (NCI-H1734; first compound 0.253 µM): 0.164
- relative viability (NCI-H1734; first compound 0.8 µM): 0.195
- relative viability (NCI-H1734; first compound 2.53 µM): 0.262
- relative viability (NCI-H522; first compound 0.08 µM): 1.26
- relative viability (NCI-H522; first compound 0.253 µM): 1.02
- relative viability (NCI-H522; first compound 0.8 µM): 1.13
- relative viability (NCI-H522; first compound 2.53 µM): 1.09
- relative viability (NCI-H358; first compound 0.08 µM): 0.302
- relative viability (NCI-H358; first compound 0.8 µM): 0.435
- relative viability (NCI-H358; first compound 2.53 µM): 0.555
- relative viability (NCI-H2228; first compound 0.08 µM): 0.154
- relative viability (NCI-H2228; first compound 0.253 µM): 0.134
- relative viability (NCI-H2228; first compound 0.8 µM): 0.157
- relative viability (NCI-H2228; first compound 2.53 µM): 0.191
- relative viability (HOP-62; first compound 0.08 µM): 0.911
- relative viability (HOP-62; first compound 0.253 µM): 0.869
- relative viability (HOP-62; first compound 0.8 µM): 0.906
- relative viability (HOP-62; first compound 2.53 µM): 0.956
- relative viability (NCI-H1792; first compound 0.08 µM): 0.417
- relative viability (NCI-H1792; first compound 0.253 µM): 0.362
- relative viability (NCI-H1792; first compound 0.8 µM): 0.469
- relative viability (NCI-H1792; first compound 2.53 µM): 0.346
- relative viability (NCI-H838; first compound 0.08 µM): 0.21
- relative viability (NCI-H838; first compound 0.253 µM): 0.212
- relative viability (NCI-H838; first compound 0.8 µM): 0.314
- relative viability (NCI-H838; first compound 2.53 µM): 0.313
- relative viability (SK-MES-1; first compound 0.08 µM): 1.05
- relative viability (SK-MES-1; first compound 0.253 µM): 0.788
- relative viability (SK-MES-1; first compound 0.8 µM): 0.818
- relative viability (SK-MES-1; first compound 2.53 µM): 0.83
- relative viability (UMC-11; first compound 0.08 µM): 1.1
- relative viability (UMC-11; first compound 0.253 µM): 0.974
- relative viability (UMC-11; first compound 0.8 µM): 0.978
- relative viability (UMC-11; first compound 2.53 µM): 0.997
- relative viability (NCI-H1395; first compound 0.08 µM): 0.725
- relative viability (NCI-H1395; first compound 0.253 µM): 0.724
- relative viability (NCI-H1395; first compound 0.8 µM): 0.649
- relative viability (NCI-H1395; first compound 2.53 µM): 0.754
- relative viability (NCI-H1355; first compound 0.08 µM): 0.738
- relative viability (NCI-H1355; first compound 0.253 µM): 0.719
- relative viability (NCI-H1355; first compound 0.8 µM): 0.773
- relative viability (NCI-H1355; first compound 2.53 µM): 0.75
- relative viability (NCI-H2170; first compound 0.08 µM): 0.397
- relative viability (NCI-H2170; first compound 0.253 µM): 0.721
- relative viability (NCI-H2170; first compound 0.8 µM): 0.646
- relative viability (NCI-H2170; first compound 2.53 µM): 0.691
- relative viability (NCI-H647; first compound 0.08 µM): 0.244
- relative viability (NCI-H647; first compound 0.253 µM): 0.16
- relative viability (NCI-H647; first compound 0.8 µM): 0.185
- relative viability (NCI-H647; first compound 2.53 µM): 0.164
- relative viability (COR-L 105; first compound 0.08 µM): 0.938
- relative viability (COR-L 105; first compound 0.253 µM): 0.693
- relative viability (COR-L 105; first compound 0.8 µM): 0.891
- relative viability (COR-L 105; first compound 2.53 µM): 0.74
